Values quoted from earlier work, collected in patent US20240216329A1, “PUTRESCINE TOPICAL FORMULATIONS” (VIVIER CANADA INC., priority 2017, published 2024).

Tests used:
[1] = test system: collagen cross-linking (fibroblast tissue transglutaminase); conditions: in vitro and in vivo
scar fibroblasts = conditions: human harvested scars

In the case of `NCCCCN` [putrescine, 1,4-diaminobutane], the collagen cross-linking [1] is given as “reduce collagen cross-linking”, the “apoptosis of scar fibroblasts” value (scar fibroblasts) is given as “increase in apoptosis of scar fibroblasts” and the “barrier function of the epidermis” value (epidermis of eroded skin; eroded skin, topical) is given as “increasing its barrier function”. The “thickness of the stratum lucidum / inner strata of epidermis” value (epidermis of eroded skin; stratum lucidum in animals, inner strata of human epidermis) was “increasing”.
